The values that follow come from patent publication US9447086B2, “6-amino acid heteroaryldihydropyrimidines for the treatment and prophylaxis of hepatitis B virus infection” (priority 2012, dated 2016).

The nature of data set [1]: Metabolic stability study in human microsome. It is filed as in vitro ADME. The procedure:
Human Microsomes were preincubated with test compound for 10 min at 37° C. in 100 mM phosphate buffer, pH 7.4. The reactions were initiated by adding NADPH or NADPH regenerating system to give a final incubation volume of 400 μL. For NADPH system, the final incubations contained 1 μM test compound, 0.5 mg/mL liver microsomal protein, 1 mM NADPH in 100 mM phosphate buffer, pH 7.4. For the NADPH regenerating system, the final incubations contained 1 μM test compound, 0.5 mg/mL liver microsomal protein, 3 mM glucose 6-phosphate, 1 mM NADP, 3 mM MgCl2 and 0.05 mg/mL glucose 6-phosphate dehydrogenase in 100 mM phosphate buffer, pH 7.4. After incubation times of 0, 3, 6, 9, 15 and 30 minutes at 37° C., 50 μL samples was removed and transferred to 150 μL methanol solution which was maintained at 4° C. containing 2 μM tolbutamide (internal standard) to terminating the reaction. Following precipitation and centrifugation, the amount of compound remaining in the samples were determined by LC-MS/MS. Controls of no NADPH or NADPH regenerating system at zero and 30 min were also prepared and analyzed.

The subject of data set [2] is HBV. Briefly: Anti-HBV activity in vitro in HepG2.2.15 cells (extracellular HBV DNA by qPCR). The format is cell-based, Hepatitis B virus. The conditions noted are these: Hepatitis B virus. The source says:
(§1) HepG2.2.15 and HepDE19 are stably-transfected cell lines containing the HBV genome. Both cell lines are derived from the hepatoblastoma cell line Hep G2 (American Type Culture Collection, ATCC® HB-8065™) by the published procedures described in references: MA Selles et al. Proc. Natl. Acad. Sci. USA 1987, 84, 1005-1009 and H Guo et al. Journal of Virology 2007, 81, 12472-12484, respectively. Both cell lines were maintained in Dulbecco's modified Eagle's medium (DMEM)-F12 medium supplemented with 10% fetal bovine serum, 100 U/mL penicillin, 100 μg/mL streptomycin, and 0.5 mg/mL of G418.
While HepG2.2.15 cells constitutively support HBV replication and production of virus particles, HepDE19 cells are inducible by tetracycline. Addition of 1 μg/mL tetracycline in culture medium suppresses HBV replication in HepDE19 cells, whereas switching to tetracycline-free medium resumes this process.
HepG2.2.15 cells were seeded into 96-well plates (3×10^4 cells in 100 μl media per well) and incubated overnight at 37° C. The test compounds were serially half-log diluted in DMSO, then diluted 100 times in culture media. 100 μL diluted compounds were added into the plates to reach 0.5% final concentration of DMSO in every well. Five days after compound treatment, culture supernatant was collected for further analysis.
For quantitative PCR detection of extracellular HBV DNA, 100 μL culture supernatant was collected and processed in MagNA Pure 96 Nucleic Acid Purification System (Roche Applied Science) for viral DNA extraction. The extracted samples were subjected to HBV DNA quantification by qPCR.
The compounds of the present invention were tested for their capacity to inhibit a HBV activity and activation as described herein.
(In general: Real-time PCR tracks product formation cycle by cycle.)

Data set [3] can be described thus: Lyophilisation solubility assay (Lysa). It is filed as physicochemical. The conditions noted are these: pH 6.5, aqueous buffer, thermodynamic from solid. As to the method: The aqueous solubility is an important physico-chemical property that plays a significant role in various physical and biological processes. It is desirable to have good solubility which enables good permeability and gastric and intestinal absorption, linear dose proportionality, less PK variability, and easy formulation for PD/PK studies. […] Lyophilisation solubility assay (Lysa) is a well adopted high throughput assay to measure compound solubility in industry.
Samples are prepared in duplicate from 10 mM DMSO stock solutions. After evaporation of DMSO with a centrifugal vacuum evaporator, the residue is solved in 0.05 M phosphate buffer (pH 6.5), stirred for one hour and shaken for two hours. After one night, the solutions is filtered using a microtiter filter plate and the filtrate and its 1/10 dilution are then analyzed by direct UV measurement or by HPLC-UV. […] The results are in μg/mL.

The nature of data set [4]: Cytotoxicity (CC50) in HepDE19 cells, CCK-8 cell viability. It is filed as cell-based. The conditions noted are these: human, HepDE19 cells; read-out: CC50.
Source text: as §1
Five days after treatment, cell viability was measured by addition of 20 μL of CCK-8 reagent. Two hours after incubation at 37° C., the absorbance at wavelengths of 450 nm and 630 nm (OD450 and OD630) was recorded by a plate reader.

Data set [5] deals with HBV. Briefly: Selectivity index (CC50 value/EC50 value). It is filed as cell-based, Hepatitis B virus. The text has this: Based on FDA guidance, in order to support clinical testing in humans, the assessment of acceptable risk-benefit has to be achieved by providing clear evidence of in vitro antiviral activity (EC50) and cytotoxicity (CC50). It is important to establish that an investigational product has antiviral activity at concentrations that can be achieved in vivo without inducing toxic effects to cells. Furthermore, in a cell culture model, apparent antiviral activity of an investigational product can be the result of host cell death after exposure to the product. The relative effectiveness of the compound in inhibiting viral replication compared to inducing cell death is defined as the selectivity index (CC50 value/EC50 value). It is desirable to have a high selectivity index giving maximum antiviral activity with minimal cell toxicity.
The relative effectiveness of the compound in inhibiting viral replication compared to inducing cell death is defined as the selectivity index (CC50 value/EC50 value). It is desirable to have a high selectivity index giving maximum antiviral activity with minimal cell toxicity.

The mark [6] stands for this setting: HepG2.2.15 cells, in-house data, read-out: EC50.

Structures are written as SMILES. Values after ≈ are worked out from the molar mass of the structure shown. Where two headings read alike, the source gives them in different places.

In general, EC50 refers to the concentration giving half of the maximal effect. As a reminder, the thermodynamic solubility is the concentration in solution at equilibrium with solid. One may read the CC50 as the concentration giving 50% cytotoxicity.

Consider `CCOC(=O)C1=C(CN2CCOC[C@H]2C(=O)O)NC(c2nccs2)=N[C@H]1c1ccc(Cl)cc1Cl` [Example 39, (S)-4-[(R)-6-(2,4-Dichloro-phenyl)-5-ethoxycarbonyl-2-thiazol-2-yl-3,6-dihydro-pyrimidin-4-ylmethyl]-morpholine-3-carboxylic acid], for which the “Human Hepatic Clearance” value in data set [1] came out at 7.18 mL/min/kg. In addition, the EC50 in the data set on HBV [2] (HepG2.2.15) was found to be 1.1 nM. Further, the solubility (thermodynamic) in data set [3] (phosphate buffer) is above 654 µg/mL.
Take `COC(=O)C1=C(CN2CCOC[C@H]2C(=O)O)NC(c2nccs2)=N[C@H]1c1ccc(Br)c(F)c1F` [Example 45, (5)-4-[(R)-6-(4-Bromo-2,3-difluoro-phenyl)-5-methoxycarbonyl-2-thiazol-2-yl-3,6-dihydro-pyrimidin-4-ylmethyl]-morpholine-3-carboxylic acid]: the “Human Hepatic Clearance” value in data set [1] worked out at 4.69 mL/min/kg. Moreover, the EC50 in the data set with HBV [2] (setting [6]) is 28 nM. In data set [3] (phosphate buffer), this molecule registered a thermodynamic solubility above 695 µg/mL.
`CCOC(=O)C1=C(CN2CC(F)(F)C[C@H]2C(=O)O)NC(c2nccs2)=N[C@H]1c1ccc(C#N)cc1` [Example 48, (S)-6-((S)-2-Carboxy-4,4-difluoro-pyrrolidin-1-ylmethyl)-4-(4-cyano-phenyl)-2-thiazol-2-yl-1,4-dihydro-pyrimidine-5-carboxylic acid ethyl ester]: the “Human Hepatic Clearance” value in data set [1] was found to be 3.12 mL/min/kg. Besides, the EC50 in the data set on HBV [2] (setting [6]) was 28 nM. In data set [3] (phosphate buffer), this molecule gave a thermodynamic solubility above 635 µg/mL.
The matching figures for `CCOC(=O)C1=C(CN2CC(F)(F)C[C@H]2C(=O)O)NC(c2nccn2C)=N[C@H]1c1ccc(F)c(F)c1` [Example 56, (S)-6-((S)-2-Carboxy-4,4-difluoro-pyrrolidin-1-ylmethyl)-4-(3,4-difluoro-phenyl)-2-(1-methyl-1H-imidazol-2-yl)-1,4-dihydro-pyrimidine-5-carboxylic acid ethyl ester]: 2.44 mL/min/kg, 15 nM and above 645 µg/mL.
For `COC(=O)C1=C(CN2CCOC[C@@]2(C)C(=O)O)NC(c2nccs2)=N[C@H]1c1ccc(F)c(F)c1Cl` [Example 78, (S)-4-[(R)-6-(2-Chloro-3,4-difluoro-phenyl)-5-methoxycarbonyl-2-thiazol-2-yl-3,6-dihydro-pyrimidin-4-ylmethyl]-3-methyl-morpholine-3-carboxylic acid], the “Human Hepatic Clearance” value in data set [1] was determined as 3.22 mL/min/kg. In the data set on HBV [2] (setting [6]), the EC50 is 26 nM. This molecule also returned a thermodynamic solubility in data set [3] (phosphate buffer) above 653 µg/mL.
For `COC(=O)C1=C(CN2C[C@H](C(=O)O)CC(F)(F)C2)NC(c2nc(C)cs2)=N[C@H]1c1ccc(F)cc1Cl` [Example 80, (R)-6-((R)-5-Carboxy-3,3-difluoro-piperidin-1-ylmethyl)-4-(2-chloro-4-fluoro-phenyl)-2-(4-methyl-thiazol-2-yl)-1,4-dihydro-pyrimidine-5-carboxylic acid methyl ester], in data set [1], the “Human Hepatic Clearance” value was found to be 4.27 mL/min/kg. Further, the EC50 in the data set with HBV [2] (setting [6]) stood at 27 nM. The molecule also had a solubility (thermodynamic) in data set [3] (phosphate buffer) of 518 µg/mL (≈ 954 µM).
For `CCCOC(=O)C1=C(CN2CCOC[C@H]2C(=O)O)NC(c2nccs2)=N[C@H]1c1ccc(F)cc1Cl` [Example 99, (S)-4-[6-(2-Chloro-4-fluoro-phenyl)-5-propoxycarbonyl-2-thiazol-2-yl-3,6-dihydro-pyrimidin-4-ylmethyl]-morpholine-3-carboxylic acid], the “Human Hepatic Clearance” value in data set [1] turned out to be 2.13 mL/min/kg. The EC50 with HBV [2] (setting [6]) is 12 nM. Further, the thermodynamic solubility in data set [3] (phosphate buffer) is above 677 µg/mL.
With `CC(C)OC(=O)C1=C(CN2CCOC[C@H]2C(=O)O)NC(c2nccs2)=N[C@H]1c1ccc(F)c(F)c1` [Example 100, (S)-4-[(S)-6-(3,4-Difluoro-phenyl)-5-isopropoxycarbonyl-2-thiazol-2-yl-3,6-dihydro-pyrimidin-4-ylmethyl]-morpholine-3-carboxylic acid], the “Human Hepatic Clearance” value in data set [1] is 0.1 mL/min/kg. Moreover, in the data set on HBV [2] (setting [6]), the EC50 came to 35 nM. The solubility (thermodynamic) in data set [3] (phosphate buffer) is above 656 µg/mL.
As to `COC(=O)C1=C(CN2CC(F)(F)CC[C@@H]2C(=O)O)NC(c2nccs2)=N[C@H]1c1cccc(F)c1Cl` [Example 110, (R)-6-((R)-2-Carboxy-5,5-difluoro-piperidin-1-ylmethyl)-4-(2-chloro-3-fluoro-phenyl)-2-thiazol-2-yl-1,4-dihydro-pyrimidine-5-carboxylic acid methyl ester], the “Human Hepatic Clearance” value in data set [1] amounted to 2.41 mL/min/kg. Moreover, the EC50 in the data set with HBV [2] (setting [6]) worked out at 42 nM. This molecule displayed a thermodynamic solubility in data set [3] (phosphate buffer) above 661 µg/mL.
`CCOC(=O)C1=C(CN2CCO[C@H](C)[C@H]2C(=O)O)NC(c2nccs2)=N[C@H]1c1ccc(F)c(F)c1` [Example 112, (2R,3S)-4-[(S)-6-(3,4-Difluoro-phenyl)-5-ethoxycarbonyl-2-thiazol-2-yl-3,6-dihydro-pyrimidin-4-ylmethyl]-2-methyl-morpholine-3-carboxylic acid]: in data set [4], the CC50 at 5 days is 73000 nM. Also, in data set [1], the “Human Hepatic Clearance” value amounted to 1.95 mL/min/kg. Also, the “Selectivity index (CC50/EC50)” value in the data set on HBV [5] is reported as 14123. The EC50 in the data set with HBV [2] (setting [6]) turned out to be 5.2 nM.
In the case of `CCOC(=O)C1=C(CN2CCO[C@H](C)[C@H]2C(=O)O)NC(c2nccs2)=N[C@H]1c1ccc(F)cc1Br` [Example 116, (2R,3S)-4-[(R)-6-(2-Bromo-4-fluoro-phenyl)-5-ethoxycarbonyl-2-thiazol-2-yl-3,6-dihydro-pyrimidin-4-ylmethyl]-2-methyl-morpholine-3-carboxylic acid], the “Human Hepatic Clearance” value in data set [1] was 0 mL/min/kg. The EC50 in the data set with HBV [2] (HepG2.2.15) came to 1.8 nM. Also, the solubility (thermodynamic) in data set [3] was above 735 µg/mL.
On to `CCOC(=O)C1=C(CN2CCOC[C@H]2C(=O)O)NC(c2nccs2)=N[C@H]1c1ccc(Cl)c(Br)c1` [Example 124, (3S)-4-[[(4S)-4-(3-Bromo-4-chlorophenyl)-5-ethoxycarbonyl-2-(1,3-thiazol-2-yl)-1,4-dihydropyrimidin-6-yl]methyl]morpholine-3-carboxylic acid], for which the “Human Hepatic Clearance” value in data set [1] was found to be 2.17 mL/min/kg. Besides, the EC50 in the data set with HBV [2] (setting [6]) turned out to be 29 nM. This molecule came in with a thermodynamic solubility in data set [3] (phosphate buffer) above 655 µg/mL.
The matching figures for `CCOC(=O)C1=C(CN2CCOC[C@H]2C(=O)O)NC(c2nccs2)=N[C@H]1c1cc(F)cc(Cl)c1` [Example 125, (3S)-4-[[(4S)-4-(3-Chloro-5-fluorophenyl)-5 ethoxycarbonyl-2-(1,3-thiazol-2-yl)-1,4-dihydropyrimidin-6-yl]methyl]morpholine-3 carboxylic acid]: 1.32 mL/min/kg, 30 nM and above 636 µg/mL.
